In patent publication US11202854B2, “Disintegrin variants and uses thereof” (National Taiwan University, priority 2017, dated 2021):
Values after ≈ are worked out from the molar mass of the structure shown. Like-named read-outs stand apart in the source and are kept apart here. Positions of bridges follow the written chain, without caps; N, C: chain ends. Non-standard residues stand in square brackets, D forms with d. Residues, ends and D or L forms follow the SMILES beside them. hArg = N=C(N)NCCCC[C@H](N)C(=O)O; Mpa = O=C(O)CCS

Key:
[1] = tested on: platelets
Procedure: Disintegrin and its variants of Example 1 were subject to test for their abilities in suppressing platelet aggregation mediated by αIIbβ3. Briefly, venous blood samples from healthy donors were collected and platelet-rich plasma was prepared therefrom. The platelet-rich plasma was then incubated with the stimulant (e.g., collagen or AP2) that triggered plug formation, then with the disintegrin and/or its variants of Example 1.

[2] = tested on: platelets; test: Platelet aggregation (inducer not stated); assay type: cell-based, human; details: Table 4; inducer not given
Procedure: (§1) Blood was collected from healthy volunteers who had not taken any medication for two weeks prior to the study. Informed consents were obtained from each and every participants, and the study was approved by the institutional review board of National Taiwan University Hospital. Preparation of human PS was performed in accordance with procedures described previously (Huang et al., Experimental haemtology. 2008 36(12), 1704-1713).
(§2) Disintegrin and its variants of Example 1 were subject to test for their abilities in suppressing platelet aggregation mediated by αIIbβ3. Briefly, venous blood samples from healthy donors were collected and platelet-rich plasma was prepared therefrom. The platelet-rich plasma was then incubated with the stimulant (e.g., collagen or […]) that triggered plug formation, then with the disintegrin and/or its variants of Example 1.

[3] = tested on: integrin αvβ3; test: Cell adhesion assay: CHO-αvβ3 cells to fibrinogen; assay type: cell-based; details: CHO-αvβ3 cells to immobilized fibrinogen
Procedure: (§3) A cell adhesion assay was used to determine the inhibitory activity of Rho, TMV, and their variants and was conducted according to previously described protocols. 96-well microtiter plates (Costar; Corning) were coated with 100 μL PBS buffer containing 200 μg/mL fibrinogen or 50 μg/mL fibronectin, and incubated overnight at 4° C. Non-specific protein binding sites were blocked by incubating each well with 200 μL of heat-denatured 1% bovine serum albumin (BSA) (Calbiochem) at room temperature for 1.5 h. The heat-denatured BSA was discarded and each well was washed twice with 200 μL PBS.
(§4) Chinese hamster ovary (CHO) cells that expressed integrins αvβ3 (CHO-αvβ3) and αIIbβ3 (CHO-αIIbβ3) were kindly provided by Dr. Y. Takada (Scripps Research Institute) and maintained in Dulbecco's modified Eagle's medium (18, 27). Human erythroleukemia K562 cell was purchased from ATCC and cultured in Roswell Park Memorial Institute (RPMI)—1640 medium containing 10% fetal bovine serum (FBS). Harvested K562 cells were resuspended in RPMI-1640 medium containing 5% FBS. […]
(§5) The adhesions of CHO-αIIbβ3 cells to fibrinogen, CHO-αvβ3 cells to fibrinogen, and K562 cells to fibronectin were used to determine the inhibitory activities of tested protein to integrins αIIbβ3, αvβ3, and α5β1. […] The resulting absorbance was read at 600 nm and the readings were correlated with the number of adhering cells. […]

[4] = tested on: platelets; test: ADP-induced platelet aggregation in platelet-rich plasma; assay type: cell-based, human
Procedure: as §1, §2

[5] = target: T1, integrin αIIbβ3 (Homo sapiens, UniProt P05106+P08514); test: Cell adhesion assay: CHO-αIIbβ3 cells to fibrinogen; assay type: cell-based; details: Table 3
T1 construct: host or cells: CHO (Chinese hamster ovary) cells
T1 sequence (P08514 32-887 limits assumed): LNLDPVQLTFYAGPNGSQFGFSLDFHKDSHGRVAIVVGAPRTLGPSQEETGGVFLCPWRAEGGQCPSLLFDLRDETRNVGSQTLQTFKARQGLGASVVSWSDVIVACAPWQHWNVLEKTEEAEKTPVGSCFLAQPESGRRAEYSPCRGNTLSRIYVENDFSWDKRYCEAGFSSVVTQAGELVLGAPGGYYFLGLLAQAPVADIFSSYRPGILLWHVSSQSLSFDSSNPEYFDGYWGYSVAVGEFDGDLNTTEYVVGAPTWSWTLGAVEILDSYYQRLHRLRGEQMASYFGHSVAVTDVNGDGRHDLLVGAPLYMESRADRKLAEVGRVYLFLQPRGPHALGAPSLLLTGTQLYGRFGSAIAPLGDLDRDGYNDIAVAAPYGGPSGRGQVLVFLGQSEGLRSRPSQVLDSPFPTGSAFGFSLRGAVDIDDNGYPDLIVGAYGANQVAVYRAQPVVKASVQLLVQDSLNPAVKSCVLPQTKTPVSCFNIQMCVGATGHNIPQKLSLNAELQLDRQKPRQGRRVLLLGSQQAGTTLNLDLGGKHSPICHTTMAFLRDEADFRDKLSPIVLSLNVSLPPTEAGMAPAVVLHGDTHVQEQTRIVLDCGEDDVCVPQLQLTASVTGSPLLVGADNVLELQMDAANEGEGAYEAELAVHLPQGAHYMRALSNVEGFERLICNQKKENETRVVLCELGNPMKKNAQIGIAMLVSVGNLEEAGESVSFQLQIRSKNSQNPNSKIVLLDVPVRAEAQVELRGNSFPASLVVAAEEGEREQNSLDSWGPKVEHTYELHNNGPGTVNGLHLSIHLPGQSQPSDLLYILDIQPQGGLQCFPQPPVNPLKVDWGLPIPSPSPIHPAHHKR
T1 sequence (P08514 891-1039 partner limits assumed): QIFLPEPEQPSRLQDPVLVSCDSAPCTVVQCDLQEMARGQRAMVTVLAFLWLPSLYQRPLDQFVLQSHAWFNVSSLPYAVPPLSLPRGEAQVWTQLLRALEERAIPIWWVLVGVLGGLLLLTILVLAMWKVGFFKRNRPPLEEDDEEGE
T1 sequence (P05106 27-788): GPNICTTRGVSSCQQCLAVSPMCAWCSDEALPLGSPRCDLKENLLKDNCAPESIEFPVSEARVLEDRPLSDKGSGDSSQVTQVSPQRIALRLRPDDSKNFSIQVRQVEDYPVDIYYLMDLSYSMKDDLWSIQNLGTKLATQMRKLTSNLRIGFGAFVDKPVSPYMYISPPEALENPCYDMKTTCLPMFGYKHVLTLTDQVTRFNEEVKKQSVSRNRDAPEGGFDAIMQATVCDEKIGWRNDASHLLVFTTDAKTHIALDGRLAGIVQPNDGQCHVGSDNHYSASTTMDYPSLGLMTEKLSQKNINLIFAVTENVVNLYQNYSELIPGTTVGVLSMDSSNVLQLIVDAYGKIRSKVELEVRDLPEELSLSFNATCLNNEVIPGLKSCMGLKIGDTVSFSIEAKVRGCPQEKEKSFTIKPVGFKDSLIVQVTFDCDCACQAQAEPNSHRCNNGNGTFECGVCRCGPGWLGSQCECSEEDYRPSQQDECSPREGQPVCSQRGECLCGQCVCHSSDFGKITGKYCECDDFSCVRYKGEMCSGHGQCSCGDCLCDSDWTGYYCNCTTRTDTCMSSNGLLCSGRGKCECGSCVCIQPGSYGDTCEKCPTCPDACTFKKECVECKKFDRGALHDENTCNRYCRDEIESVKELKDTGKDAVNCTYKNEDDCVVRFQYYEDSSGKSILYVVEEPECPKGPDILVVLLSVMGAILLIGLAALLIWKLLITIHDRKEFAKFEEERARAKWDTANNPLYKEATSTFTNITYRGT
Procedure: as §3, §4, §5

[6] = tested on: platelets; test: Ex vivo collagen-induced platelet aggregation response; assay type: in vivo, mouse; details: FIG. 1 panels B and C
[7] = Tail bleeding time; assay type: in vivo, mouse; details: 0.18 mg/Kg, mice
Procedure: Male ICR mice weighing 20-30 g were used in all studies. Animals were allowed to access food and water ad libitum under controlled temperature (20±1° C.) and humidity (55%±5%). The animal experimental protocols were approved by the Laboratory Animal Use Committee of College of Medicine, National Taiwan University.
Male ICR mice were intravenously injected through a lateral tail vein of the mouse with agents. A sharp cut of 2 mm segment from the distal tail was made 5 min after injection. The amputated tail was immediately placed into a tube filled with isotonic saline at 37° C. Bleeding time was recorded for a maximum of 10 min and the end point was the arrest of bleeding.

Compound	IC50 ([1]; read-out: Platelet aggregation IC50 (nM), Collagen, collagen-induced) [nM]	IC50 [2] [nM]	IC50 [3] [nM]	IC50 [4] [nM]	IC50 [5] [nM]	IC50 on collagen-induced platelet aggregation ([1]; in vitro, FIG. 1 panel A) [µg/mL]	Collagen-induced platelet aggregation response [6]	Tail bleeding time [7]
Rhodostomin	66.8	83.2 ± 10.4	13 ± 5.7	81.5	59.5	–	–	–
N=C(N)NCCCC[C@@H]1NC(=O)CCSSC[C@@H](C(N)=O)NC(=O)[C@@H]2CCCN2C(=O)[C@H](Cc2c[nH]c3ccccc23)NC(=O)[C@H](CC(=O)O)NC(=O)CNC1=O [eptifibatide] ([Mpa][hArg]GDWPC-NH2; disulfide 1-7)	–	–	–	–	–	0.75 (≈ 0.901 µM)	significantly suppressed	significantly prolong
